Laboratory results taken from publication PMC9445672, “A novel angiotensin-I-converting enzyme inhibitory peptide from oyster: Simulated gastro-intestinal digestion, molecular docking, inhibition kinetics and antihypertensive effects in rats” (Frontiers in Nutrition, 2022).
Like-named read-outs stand apart in the source and are kept apart here. Residues, ends and D or L forms follow the SMILES beside them.

Columns and labels:
[1] = target: T1, Angiotensin-I converting enzyme (ACE) (from rabbit lungs) (Oryctolagus cuniculus, UniProt P12822); assay: Kinetics of ACE inhibition (Lineweaver-Burk plot); type: biochemical; conditions: HHL 1–10 mM, peptide 1 and 2 mg/mL
T1 construct: Angiotensin-I converting enzyme (ACE) (from rabbit lungs); purchased Sigma-Aldrich Co. (St. Louis, MO, United States); host or cells: rabbit lung tissue
T1 sequence (P12822 34-1310): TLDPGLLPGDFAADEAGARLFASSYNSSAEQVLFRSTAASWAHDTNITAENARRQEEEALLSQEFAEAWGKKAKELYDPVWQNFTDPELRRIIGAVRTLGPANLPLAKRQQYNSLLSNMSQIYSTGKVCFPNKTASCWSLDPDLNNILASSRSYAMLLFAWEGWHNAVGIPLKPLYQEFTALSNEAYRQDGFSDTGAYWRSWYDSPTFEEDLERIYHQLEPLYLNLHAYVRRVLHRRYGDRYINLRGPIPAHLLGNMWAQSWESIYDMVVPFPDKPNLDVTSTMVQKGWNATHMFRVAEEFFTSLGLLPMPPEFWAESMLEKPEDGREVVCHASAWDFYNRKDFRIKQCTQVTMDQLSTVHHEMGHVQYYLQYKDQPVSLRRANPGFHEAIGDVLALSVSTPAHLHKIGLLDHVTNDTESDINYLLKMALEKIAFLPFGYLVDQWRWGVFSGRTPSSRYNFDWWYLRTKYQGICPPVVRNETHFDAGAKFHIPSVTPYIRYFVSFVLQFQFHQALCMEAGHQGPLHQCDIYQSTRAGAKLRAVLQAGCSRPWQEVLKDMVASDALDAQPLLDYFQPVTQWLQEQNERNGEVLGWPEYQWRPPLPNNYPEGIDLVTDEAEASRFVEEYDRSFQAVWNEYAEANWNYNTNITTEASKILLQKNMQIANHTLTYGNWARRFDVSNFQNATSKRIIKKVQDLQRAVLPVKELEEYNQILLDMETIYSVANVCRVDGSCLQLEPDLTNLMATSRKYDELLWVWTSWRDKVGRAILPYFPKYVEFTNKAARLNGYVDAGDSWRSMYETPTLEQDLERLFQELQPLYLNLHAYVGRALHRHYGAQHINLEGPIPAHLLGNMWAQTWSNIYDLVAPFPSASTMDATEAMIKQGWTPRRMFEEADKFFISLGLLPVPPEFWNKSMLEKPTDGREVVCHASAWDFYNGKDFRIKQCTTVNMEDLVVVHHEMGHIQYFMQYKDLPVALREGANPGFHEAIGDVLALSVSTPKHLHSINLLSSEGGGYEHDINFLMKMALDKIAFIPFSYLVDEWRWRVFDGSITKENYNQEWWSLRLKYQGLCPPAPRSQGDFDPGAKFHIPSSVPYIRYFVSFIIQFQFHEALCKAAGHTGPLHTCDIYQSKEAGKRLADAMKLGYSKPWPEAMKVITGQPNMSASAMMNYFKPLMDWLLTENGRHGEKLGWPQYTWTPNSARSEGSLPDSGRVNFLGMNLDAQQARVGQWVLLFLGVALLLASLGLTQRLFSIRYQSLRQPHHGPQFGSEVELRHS
Description: To explore the inhibition pattern of the peptide and clarify the kinetics of ACEI activity, the Lineweaver-Burk plot was employed in our study. The various concentrations of the HHL solution were 1, 2, 5, 8, and 10 mM, and the concentration of synthesized peptide was set as 2 mg/mL. Various concentrations of HHL and peptide were incubated in ACE solutions. The Y-intercept of the Lineweaver-Burk plot represents the reciprocal of the maximum velocity (Vmax^–1), while the X-intercept is the reciprocal of the Michaelis-Menten constant (Km^–1).

[2] = target: T1, Angiotensin-I converting enzyme (ACE) (from rabbit lungs); assay: ACE-inhibitory activity assay (HHL substrate, HPLC of hippuric acid); type: biochemical
Description: The ACEI activity of the synthesized peptides was measured following the reported method with a minor modification ([22]). The experiment was carried out in a 1.5 mL PE tube. Briefly, for each assay, 20 μL of the inhibitor (1 mg/ml) was mixed with 120 μL of the HHL solution in the concentration of 5 mM. The mixture was first preincubated at a constant temperature of 37°C for 5 min, 10 μL ACE (0.1 U/mL) was then added to start the reaction, and to incubate at 37°C for 60 min. In the end, 150 μl HCl (1M) was used to terminate the reaction. Meanwhile, the inhibitor solution was replaced with 20 μL boric acid buffer solution (0.1 mol/L, pH 7.3, containing 0.3 mol/L NaCl) as a blank control group. The HPLC system was equipped with a ZORBAX Eclipse SB-C18 column (5 μm particle size, 4.6 × 150 mm). To analyze the releasing amount of hippuric acid under the action of ACE, the elution was conducted in 25% Mobile Phase A (ACN) and 75% Mobile Phase B (0.05% TFA in ultrapure water) for 25 min with a flow rate of 0.8 mL/min. The ACE inhibitory activity percentage (%) was calculated based on the equation below:
ACEinhibitionrate(%)=(B-S)/B×100
Where B and S are the chromatographic peak areas of the control group and the sample tested, respectively. IC50 is the inhibitor concentration capable of inhibiting 50% of ACE activity under the described experimental conditions, which was estimated by non-linear regression of ACE inhibition (%) against different inhibitor concentrations by using SPSS software.

[3] = target: T1, Angiotensin-I converting enzyme (ACE) (from rabbit lungs); assay: as above; type: biochemical; conditions: peptide 2 mg/mL, HHL 5 mM, ACE 0.1 U/mL, 37°C, 5 min pre-incubation, 60 min, triplicate
[4] = system: SHRs (spontaneously hypertensive rats); assay: Blood pressure of SHRs after single intragastric administration (tail-cuff); type: in vivo, rat
Description: Male SHRs aged 10–12 weeks old, body weight (BW) of 220–250 g, and blood pressure over 180 mmHg were purchased from Trophic Animal Feed High-tech Co. Ltd., (Nantong, China). Six SHRs were administrated individually in each cage with the stable room temperature (25 ± 0.5°C), the humidity of 55 ± 5%, and a 12-h light to12-h dark cycle. Food and water were freely accessed. Rats were accustomed to the above environment for 2 weeks before the experiment. […] The SHRs were randomly grouped in 3. Rats were gavage administered with peptide at 15 mg/kg⋅BW/day in the experiment group. […] All rats were gavaged with their daily dose at 8 am, and the blood pressure was measured every 3 h by 4 times, which was using the tail-cuff method ([27]). Briefly, rats were covered with a fixed device but could let their tail leak out (MK2000ST, Muromachi Kikai Co., Ltd., Japan). A cuff was curled around the tail to measure the diastolic blood pressure (DBP) and systolic blood pressure (SBP).

[5] = system: ACE; conditions: cited from earlier work
Description: The inhibitory patterns of the ACEI peptides mainly contain competitive inhibition, non-competitive inhibition, and mixed inhibition according to their various structures. […] Non-competitive A ... || The Lineweaver-Burk plots were employed to elucidate the ACE inhibition kinetic of the synthetic peptide […], shown in Figure 2B. Whereas the Vmax was the same when the concentrations of the inhibitory peptide increased, the Km/Vmax value increased. […] Among all the ACE inhibition patter ...

[6] = system: Ren1 / Adrb3 expression in SHRs; parameters: method as in 2 sources, one per row (each row's own in cited_ref): ref [45] = [45]; PMID 24404915; doi:10.1021/jf405189y; 45. Yu ZP Yin YG Zhao WZ Chen F Liu JB . Antihypertensive effect of angiotensin-converting enzyme inhibitory peptide RVPSL on spontaneously hypertensive rats by regulating gene expression of the renin ||| ref [46] = [46]; PMID 26517713; doi:10.1371/journal.pone.0142016; 46. Feng J Dai Z Zhang Y Meng L Ye J Ma X . Alteration of gene expression profile in kidney of spontaneously hypertensive rats treated with protein hydrolysate of blue mussel ( Mytilus edulis ) by DNA; conditions: SHRs orally administered 50 mg/kg; ref [45]; cited from earlier work
[7] = peptide 1 mg/mL, HHL 5 mM, ACE 0.1 U/mL, 37°C, 5 min pre-incubation, 60 min, HPLC of hippuric acid, triplicate
[8] = clinical drugs for hypertension, ref [30]
[9] = food-derived peptides, ref [41], [42]
[10] = food-derived peptides, ref [32], [37]
[11] = food-derived peptides, ref [43], [44]

Molecule	ACE inhibition rate (%) Concentration (1 mg/mL) [2, 7]	ACE inhibition rate (%) Concentration (2 mg/mL) [3]	ACE inhibitory pattern [5, 10]	also measured
CC(C)C[C@H](NC(=O)[C@H](Cc1ccc(O)cc1)NC(=O)[C@H](CCC(=O)O)NC(=O)[C@H](C)N)C(=O)N[C@@H](CS)C(=O)N[C@@H](CCC(=O)O)C(=O)N[C@@H](C)C(=O)N[C@@H](CS)C(=O)O (H-AEYLCEAC-OH)	14.2857%	29.3266%	–	Km/Vmax value with increasing inhibitory peptide concentration [1]: increased; inhibition at 1000 µg/mL ([2]; peptide 1 mg/mL, HHL 5 mM, ACE 0.1 U/mL, 37°C, 5 min pre-incubation, 60 min, HPLC of hippuric acid, triplicate, read-out: ACE inhibition rate (%) Concentration (1 mg/mL)): 14.3%; IC50 ([2]; peptide 0.2–15 mg/mL, HPLC method, regression y = −0.0073x^2 + 0.1616x −0.0105 (R^2 = 0.99), read-out: IC50 of ACE inhibition): 4.29 mM; inhibition at 2000 µg/mL ([3]; read-out: ACE inhibition rate (%) Concentration (2 mg/mL)): 29.3%
C[C@H](CS)C(=O)N1CCC[C@H]1C(=O)O [captopril]	–	–	–	blood pressure reduction in rats with hypertension, overall comparison ([4]; all data of single and 4-week administration in SHRs): better than AEYLCEAC; SBP after a single intragastric administration ([4]; male SHRs, gavage, peptide 15 mg/kg BW, captopril 10 mg/kg BW, 3 to 12 h, vs water control, p < 0.01): SBP in control group was significantly higher than that in the peptide group and positive group
CCOC(=O)[C@H](CCc1ccccc1)N[C@@H](C)C(=O)N1CCC[C@H]1C(=O)O [enalapril]	–	–	–	ACE inhibitory pattern [5, 8]: competitive inhibitors
NCCCC[C@H](N[C@@H](CCc1ccccc1)C(=O)O)C(=O)N1CCC[C@H]1C(=O)O [lisinopril]	–	–	–	ACE inhibitory pattern [5, 8]: competitive inhibitors
ALVY [from Gac Seed Protein Hydrolysates]	–	–	–	ACE inhibitory pattern [5, 9]: competitive
AVKVL [derived from hazelnut]	–	–	Non-competitive	–
EPNGLLLPQY [from walnut protein]	–	–	–	ACE inhibitory pattern [5, 11]: mixed pattern
ETSGMKPTEL [isolated from longan seeds]	–	–	Non-competitive	–
ISSMGILVCL [isolated from longan seeds]	–	–	Non-competitive	–
LDVSWASD	3.6918%	13.9971%	–	–
LSSNLHG	–1.1236%	–5.7205%	–	–
NMAINPSKENLCSTFCK [isolated from casein hydrolysates]	–	–	–	ACE inhibitory pattern [5, 11]: mixed pattern
QAGLSPVR [from tilapia skin gelatin]	–	–	Non-competitive	–
QEVVMGEC	–3.8523%	–5.0688%	–	–
QLVP [from Mycelia of Ganoderma Lucidum]	–	–	–	ACE inhibitory pattern [5, 11]: mixed pattern
RSNDGPI	–13.9647%	–4.3447%	–	–
RVPSL [hydrolyzed from egg white protein]	–	–	–	Ren1 expression [6]: downregulated
SSYYPFK [from naked oat globulin hydrolysates]	–	–	–	ACE inhibitory pattern [5, 9]: competitive
TLVGR [derived from hazelnut]	–	–	Non-competitive	–
TNEVEGPS	–4.8796%	7.9218%	–	–
VGLPNSR [from tilapia skin gelatin]	–	–	Non-competitive	–
VILGDADLP	1.6051%	4.7219%	–	–
YLVR [derived from hazelnut]	–	–	Non-competitive	–
